Source: patent US8895733B2 (Novartis AG, priority 2010, dated 2014)

Target: T1, Nav 1.7 (Homo sapiens, UniProt Q15858)
T1 construct: expressed in transfected cells
Assay: Whole-cell voltage clamp electrophysiology, automated patch clamp (marker c in Table of Examples)
Assay type: cell-based
Details: marker c: Automated patch clamp data; read-out: Nav 1.7 activity
In short: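 Human NaV1.7 currents were recorded by whole-cell automated patch clamp, on IonWorks Quattro or another automated platform, typically in perforated-patch configuration. The stimulus protocol was designed to probe block mainly of the inactivated state, with a typical sweep stepping from about −65 mV holding to −10 mV, then −100 mV.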

T1 sequence (Q15858 whole entry): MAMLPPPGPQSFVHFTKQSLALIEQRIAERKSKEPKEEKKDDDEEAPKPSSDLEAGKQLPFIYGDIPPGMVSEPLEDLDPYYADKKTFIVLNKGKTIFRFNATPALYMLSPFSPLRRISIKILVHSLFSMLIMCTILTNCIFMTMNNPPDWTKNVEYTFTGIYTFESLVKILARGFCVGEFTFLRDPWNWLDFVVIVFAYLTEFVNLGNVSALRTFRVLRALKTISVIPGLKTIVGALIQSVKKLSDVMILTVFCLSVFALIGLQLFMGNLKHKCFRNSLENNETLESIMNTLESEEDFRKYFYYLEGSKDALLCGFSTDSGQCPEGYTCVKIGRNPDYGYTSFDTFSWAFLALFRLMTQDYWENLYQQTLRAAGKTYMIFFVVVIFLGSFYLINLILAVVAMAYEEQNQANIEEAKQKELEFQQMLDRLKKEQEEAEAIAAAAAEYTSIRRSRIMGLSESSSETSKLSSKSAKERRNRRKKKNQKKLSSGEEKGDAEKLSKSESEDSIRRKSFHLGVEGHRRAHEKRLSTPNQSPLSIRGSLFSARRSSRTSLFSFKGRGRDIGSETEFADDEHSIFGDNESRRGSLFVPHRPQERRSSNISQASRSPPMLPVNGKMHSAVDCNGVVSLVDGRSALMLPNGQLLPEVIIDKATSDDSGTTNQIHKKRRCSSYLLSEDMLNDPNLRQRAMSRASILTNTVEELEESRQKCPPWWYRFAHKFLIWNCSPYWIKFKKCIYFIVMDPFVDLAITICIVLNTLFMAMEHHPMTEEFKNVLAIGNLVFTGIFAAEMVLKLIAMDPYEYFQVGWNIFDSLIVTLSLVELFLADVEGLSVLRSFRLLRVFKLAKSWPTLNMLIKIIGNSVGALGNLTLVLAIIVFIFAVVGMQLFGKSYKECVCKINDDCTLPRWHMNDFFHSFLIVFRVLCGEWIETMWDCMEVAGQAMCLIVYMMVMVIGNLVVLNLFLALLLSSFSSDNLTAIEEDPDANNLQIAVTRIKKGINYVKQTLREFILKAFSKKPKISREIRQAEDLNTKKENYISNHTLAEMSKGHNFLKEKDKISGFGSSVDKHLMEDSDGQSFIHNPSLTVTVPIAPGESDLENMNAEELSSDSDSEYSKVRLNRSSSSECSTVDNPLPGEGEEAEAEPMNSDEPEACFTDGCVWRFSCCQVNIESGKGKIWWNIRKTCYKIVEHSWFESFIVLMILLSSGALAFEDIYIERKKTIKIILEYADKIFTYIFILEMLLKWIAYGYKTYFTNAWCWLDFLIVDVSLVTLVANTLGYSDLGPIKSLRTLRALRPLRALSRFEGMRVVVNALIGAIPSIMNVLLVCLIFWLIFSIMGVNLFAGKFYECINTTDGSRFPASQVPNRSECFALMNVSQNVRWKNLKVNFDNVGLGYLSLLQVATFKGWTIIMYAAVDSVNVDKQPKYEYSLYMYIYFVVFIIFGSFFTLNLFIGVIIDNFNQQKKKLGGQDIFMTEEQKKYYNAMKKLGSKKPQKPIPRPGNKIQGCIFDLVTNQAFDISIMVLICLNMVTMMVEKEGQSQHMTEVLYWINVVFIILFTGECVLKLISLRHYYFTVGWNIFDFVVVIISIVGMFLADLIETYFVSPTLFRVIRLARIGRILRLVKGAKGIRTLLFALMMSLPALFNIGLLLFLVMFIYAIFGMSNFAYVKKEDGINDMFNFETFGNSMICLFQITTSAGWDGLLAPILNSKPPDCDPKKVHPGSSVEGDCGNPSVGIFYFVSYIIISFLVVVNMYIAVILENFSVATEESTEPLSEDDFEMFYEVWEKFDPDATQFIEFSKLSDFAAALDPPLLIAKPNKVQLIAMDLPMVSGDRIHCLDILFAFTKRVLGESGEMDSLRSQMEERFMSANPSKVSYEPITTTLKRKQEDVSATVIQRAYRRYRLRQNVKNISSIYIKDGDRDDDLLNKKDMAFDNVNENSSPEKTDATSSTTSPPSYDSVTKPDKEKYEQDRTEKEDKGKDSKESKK

| IC50 [nM] | SMILES |
| --- | --- |
| 2730 | CN(c1ccccc1)c1nc(N)nc(-c2noc(C3CCN(S(C)(=O)=O)CC3)n2)n1 [Example 160, 6-[5-(1-methanesulfonylpiperidin-4-yl)-1,2,4-oxadiazol-3-yl]-2-N-methyl-2-N-phenyl-1,3,5-triazine-2,4-diamine] |
| 8500 | CC(C)C(=O)N1CCC(c2nc(-c3nc(N)nc(N(C)c4ccccc4)n3)no2)CC1 [Example 161, 1-[4-(3-{4-Amino-6-[methyl(phenyl)amino]-1,3,5-triazin-2-yl}-1,2,4-oxadiazol-5-yl)piperidin-1-yl]-2-methylpropan-1-one] |
| 8980 | CC(=O)N1CCC(c2nc(-c3nc(N)nc(N(C)c4ccccc4)n3)no2)CC1 [Example 162, 1-[4-(3-{4-amino-6-[methyl(phenyl)amino]-1,3,5-triazin-2-yl}-1,2,4-oxadiazol-5-yl)piperidin-1-yl]ethan-1-one] |
| 559 | CN(c1ccccc1)c1nc(N)nc(-c2noc(C3CCN(CCC(F)(F)F)CC3)n2)n1 [Example 163, 2-N-methyl-2-N-phenyl-6-{5-[1-(3,3,3-trifluoropropyl)piperidin-4-yl]-1,2,4-oxadiazol-3-yl}-1,3,5-triazine-2,4-diamine] |
| 9040 | CN(c1ccccc1)c1nc(N)nc(-c2noc(C3CCN(C(=O)CC(F)(F)F)CC3)n2)n1 [Example 164, 1-[4-(3-{4-amino-6-[methyl(phenyl)amino]-1,3,5-triazin-2-yl}-1,2,4-oxadiazol-5-yl)piperidin-1-yl]-3,3,3-trifluoropropan-1-one] |
| 7690 | COCC1CCN(c2nc(-c3nc(N)nc(N(C)c4ccccc4)n3)no2)CC1 [Example 165, 6-{5-[4-(methoxymethyl)piperidin-1-yl]-1,2,4-oxadiazol-3-yl}-2-N-methyl-2-N-phenyl-1,3,5-triazine-2,4-diamine] |
| 60 | CN(c1ccccc1)c1nc(N)nc(-c2noc(N3CCC(COc4ccccc4)CC3)n2)n1 [Example 166, 2-N-methyl-6-{5-[4-(phenoxymethyl)piperidin-1-yl]-1,2,4-oxadiazol-3-yl}-2-N-phenyl-1,3,5-triazine-2,4-diamine] |
| 1470 | CCCS(=O)(=O)N1CCC(c2nc(-c3nc(N)nc(N(C)c4ccccc4)n3)no2)CC1 [Example 168, 2-N-methyl-2-N-phenyl-6-{5-[1 - (propane-1-sulfonyl)piperidin-4-yl]-1,2,4-oxadiazol-3-yl}-1,3,5-triazine-2,4-diamine] |
| 1030 | CN(c1ccccc1)c1nc(N)nc(-c2noc(C3CCN(S(=O)(=O)CC(F)(F)F)CC3)n2)n1 [Example 169, 2-N-methyl-2-N-phenyl-6-(5-{1-[(2,2,2-trifluoroethane)sulfonyl]piperidin-4-yl}-1,2,4-oxadiazol-3-yl)-1,3,5-triazine-2,4-diamine] |
| 1880 | CCS(=O)(=O)N1CCC(c2nc(-c3nc(N)nc(N(C)c4ccccc4)n3)no2)CC1 [Example 170, 6-{5-[1-(ethanesulfonyl)piperidin-4-yl]-1,2,4-oxadiazol-3-yl}-2-N-methyl-2-N-phenyl-1,3,5-triazine-2,4-diamine] |
| 254 | CC(C)S(=O)(=O)N1CCC(c2nc(-c3nc(N)nc(N(C)c4ccccc4)n3)no2)CC1 [Example 171, 2-N-methyl-2-N-phenyl-6-{5-[1-(propane-2-sulfonyl)piperidin-4-yl]-1,2,4-oxadiazol-3-yl}-1,3,5-triazine-2,4-diamine] |
| 1080 | CN(c1ccccc1)c1nc(N)nc(-c2noc(C3CCN(S(=O)(=O)c4ccccc4)CC3)n2)n1 [Example 172, 6-{5-[1-(benzenesulfonyl)piperidin-4-yl]-1,2,4-oxadiazol-3-yl}-2-N-methyl-2-N-phenyl-1,3,5-triazine-2,4-diamine] |
| 1000 | CN(c1ccccc1)c1nc(N)nc(-c2noc(C3CCN(Cc4ccccc4)CC3)n2)n1 [Example 173, 6-[5-(1-Benzylpiperidin-4-yl)-1,2,4-oxadiazol-3-yl]-2-N-methyl-2-N-phenyl-1,3,5-triazine-2,4-diamine] |
